The target of experiment [1] is T1, DPP1 (Homo sapiens, UniProt P53634). In words: Human DPP1 Enzyme IC50 Assay. More on the design: is first proteolytically processed into its mature form using recombinant human cathepsin L; purchased R&D Systems. The conditions noted are these: activated recombinant human DPP1, H-Gly-Arg-AMC substrate 400 μM, pH 6.0. The class given is biochemical. The protocol:
Human DPP1 Enzyme IC50 Assay
Recombinant human DPP1 enzyme (R&D Systems; Minneapolis, MN) is first proteolytically processed into its mature form using recombinant human cathepsin L (R&D Systems) in a buffer consisting of 20 mM citric acid pH 4.5, 150 mM NaCl, 1 mM EDTA and 10 mM DTT. Test articles are applied to activated human DPP1 enzyme in Assay Buffer (25 mM MES pH 6.0, 50 mM NaCl, 5 mM DTT) in a total reaction volume of 125 μL. 25 μL of compound in Assay Buffer plus 5% DMSO is first added to 50 μL of activated human DPP1 enzyme at a concentration of 1 ng/μL and allowed to pre-incubate for 10 minutes at 37° C. after which 50 μL of 1000 μM H-Gly-Arg-AMC substrate (Bachem; St. Torrance, CA) is added, giving final substrate concentration of 400 μM and a final DMSO concentration of 1%. Substrate cleavage is measured for 90 minutes at 37° C., with fluorescence at Excitation/Emission 350/450 nm measured every 5 minutes. DPP1 concentration is interpolated based on its activity relative to a standard curve of activated human recombinant DPP1 enzyme. IC50 values for each compound are calculated via the XLFit (IDBS Version 5.3.1.3) Add-On to Microsoft Excel using the four parameter fit equation y={A+[(B−A)]/[1+((C/x)^D)]}, which appears as equation number 205 (4 Parameter Logistic Model or Sigmoidal Dose-Response Model) in XLFit. Default constraints are used for each Parameter. IC50 is defined as the compound concentration at which […] of enzyme activity is inhibited when compared to the no-compound control. The IC50 table is included in the table below.
Target sequence in this assay (P53634 25-134 limits assumed): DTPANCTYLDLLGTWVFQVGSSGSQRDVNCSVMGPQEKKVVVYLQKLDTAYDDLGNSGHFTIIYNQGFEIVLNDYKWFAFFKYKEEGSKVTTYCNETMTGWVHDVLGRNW
Target sequence in this assay (P53634 231-394 limits assumed): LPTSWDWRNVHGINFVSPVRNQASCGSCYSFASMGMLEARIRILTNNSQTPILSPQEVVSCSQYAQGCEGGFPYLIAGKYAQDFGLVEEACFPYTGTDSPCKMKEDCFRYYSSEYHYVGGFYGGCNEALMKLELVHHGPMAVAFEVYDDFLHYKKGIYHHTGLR
Target sequence in this assay (P53634 395-463 limits assumed): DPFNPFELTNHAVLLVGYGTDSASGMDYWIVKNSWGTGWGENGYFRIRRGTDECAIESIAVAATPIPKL

The target of a further experiment is T2, active mouse DPP1 enzyme (Mus musculus, UniProt P97821).
T2 construct: Test articles are applied to active mouse DPP1 enzyme; purchased R&D Systems
T2 sequence (P97821 25-134 limits assumed): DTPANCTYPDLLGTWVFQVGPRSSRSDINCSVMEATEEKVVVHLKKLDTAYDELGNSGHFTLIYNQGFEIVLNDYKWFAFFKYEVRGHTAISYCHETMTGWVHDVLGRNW
T2 sequence (P97821 231-393 limits assumed): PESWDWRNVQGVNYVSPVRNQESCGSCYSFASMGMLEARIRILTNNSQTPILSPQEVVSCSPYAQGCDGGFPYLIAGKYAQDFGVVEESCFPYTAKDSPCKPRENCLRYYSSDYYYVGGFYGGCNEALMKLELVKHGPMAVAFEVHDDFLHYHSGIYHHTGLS
T2 sequence (P97821 394-462 limits assumed): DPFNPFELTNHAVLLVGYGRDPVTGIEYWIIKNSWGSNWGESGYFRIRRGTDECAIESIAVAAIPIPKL
In words: Mouse DPP1 Enzyme IC50 Assay. The conditions noted are these: active mouse DPP1, H-Gly-Arg-AMC substrate 400 μM, pH 5.5. The class given is biochemical. On the procedure: Mouse DPP1 Enzyme IC50 Assay
Test articles are applied to active mouse DPP1 enzyme (R&D Systems; Minneapolis, MN) in Assay Buffer (50 mM MES pH 5.5, 50 mM NaCl, 5 mM DTT) in a total reaction volume of 125 μL. 25 μL of compound in Assay Buffer plus 5% DMSO is first added to 50 μL of active mouse DPP1 enzyme at a concentration of 62.5 pg/μL and allowed to pre-incubate for 10 minutes at 37° C. after which 50 μL of 1000 μM H-Gly-Arg-AMC substrate (Bachem; St. Torrance, CA) is added, giving final substrate concentration of 400 μM and a final DMSO concentration of 1%. Substrate cleavage is measured for 90 minutes at 37° C., with fluorescence at Excitation/Emission 350/450 nm measured every 5 minutes. DPP1 concentration is interpolated based on its activity relative to a standard curve of recombinant active mouse DPP1 enzyme. IC50 values for each compound are calculated via the XLFit (IDBS Version 5.3.1.3) Add-On to Microsoft Excel using the four parameter fit equation y=(A+((B-A)/(1+((C/x)^D)))), which appears as equation number 205 (4 Parameter Logistic Model or Sigmoidal Dose-Response Model) in XLFit. Default constraints are used for each Parameter. IC50 is defined as the compound concentration at which 50% of enzyme activity is inhibited when compared to the no-compound control.

The target in experiment [2] is T1, DPP1. The experiment can be described thus: Cell Assay (DPP1 IC50 values, Table 2). The class given is cell-based. To be noted: method not described.
Target sequence in this assay (P53634 25-463): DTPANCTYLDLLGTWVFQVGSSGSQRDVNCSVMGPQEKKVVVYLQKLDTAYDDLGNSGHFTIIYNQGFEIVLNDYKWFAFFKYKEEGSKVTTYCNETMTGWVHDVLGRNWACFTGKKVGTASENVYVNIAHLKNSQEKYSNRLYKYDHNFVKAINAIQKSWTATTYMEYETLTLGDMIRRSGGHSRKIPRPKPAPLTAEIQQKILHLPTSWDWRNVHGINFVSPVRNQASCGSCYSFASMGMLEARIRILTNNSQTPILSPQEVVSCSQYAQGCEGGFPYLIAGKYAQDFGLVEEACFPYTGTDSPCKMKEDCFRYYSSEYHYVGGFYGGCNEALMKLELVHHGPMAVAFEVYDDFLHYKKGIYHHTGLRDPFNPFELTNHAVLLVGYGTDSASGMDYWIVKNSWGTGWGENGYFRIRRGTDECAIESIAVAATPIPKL

The structures appear in SMILES notation.

This passage reports IC50 results from patent publication US20260265207A1, “DPP1 INHIBITORS WITH POLYCYCLIC LINKERS AND USES THEREOF” (Insmed Incorporated, priority 2023, published 2026).

Turning to `Cn1c(=O)oc2ccc(C34CC(C[C@@H](C#N)NC(=O)[C@@H]5CNCCCO5)(C3)C4)cc21` [Compound 101d], on DPP1 [1], the IC50 was ≥ 15 nM.
Still for that read-out and setting: the same measure for `Cn1c(=O)oc2ccc(-c3cc4ccc(C[C@@H](C#N)NC(=O)C5CNCCCO5)cc4s3)cc21` (stereo partly shown) [Compound 112b]: ≥ 15 nM.
Consider `Cn1c(=O)oc2ccc(-c3ccc4cc(C[C@@H](C#N)NC(=O)[C@@H]5CNCCCO5)sc4c3)cc21` [Compound 113b], for which the figures for the IC50 at DPP1 [1], against active mouse DPP1 enzyme and against DPP1 [2] were ≥ 15 nM, ≥ 20 nM and ≥ 1.5 nM, respectively.
For the compound `Cn1c(=O)oc2ccc(-c3ccc4sc(C[C@@H](C#N)NC(=O)C5CNCCCO5)cc4c3)cc21` (stereo partly shown) [Compound 114b], the IC50 was ≥ 15 nM at DPP1 [1], ≥ 20 nM against active mouse DPP1 enzyme and ≥ 1.5 nM at DPP1 [2].
In the same order, the values of `Cn1c(=O)oc2ccc(-c3ccc4sc(C[C@@H](C#N)NC(=O)[C@@H]5CNCCCO5)c(F)c4c3)cc21` [Compound 115b] are ≥ 15 nM, ≥ 20 nM and ≥ 1.5 nM.
In the same order, the values of `Cn1c(=O)oc2ccc(-c3cc4sc(CC(C#N)NC(=O)[C@@H]5CNCCCO5)cc4s3)cc21` (stereo partly drawn) [Compound 118b, (2S)—N-(1-cyano-2-(5-(3-methyl-2-oxo-2,3-dihydrobenzo[d]oxazol-5-yl)thieno[3,2-b]thiophen-2-yl)ethyl)-1,4-oxazepane-2-carboxamide] are ≥ 15 nM, ≥ 20 nM and ≥ 1.5 nM.
Regarding `Cn1c(=O)oc2ccc(-c3ccc4cc(CC(C#N)NC(=O)[C@@H]5CNCCCO5)[nH]c4c3)cc21` (stereo partly drawn) [Compound 128b, (2S)—N-(1-cyano-2-(6-(3-methyl-2-oxo-2,3-dihydrobenzo[d]oxazol-5-yl)-1H-indol-2-yl)ethyl)-1,4-oxazepane-2-carboxamide], the IC50 at DPP1 [1] is ≥ 15 nM; against DPP1 [2], ≥ 1.5 nM.
In the same order, the values of `Cn1c(=O)oc2ccc(-c3ccc4c(F)c(C[C@@H](C#N)NC(=O)[C@@H]5CNCCCO5)sc4c3)cc21` [Compound 130b] are ≥ 15 nM and ≥ 1.5 nM.
On the same counts, the results for `Cn1c(=O)oc2ccc(-c3cc4cc(C[C@@H](C#N)NC(=O)C5CNCCCO5)ccc4s3)cc21` (stereo partly shown) [Compound 131b] are ≥ 15 nM and ≥ 1.5 nM.
In the same order, the values of `Cn1c(=O)oc2ccc(-c3ccc4cc(CC(C#N)NC(=O)[C@@H]5CNCCCO5)ccc4c3)cc21` (stereo partly drawn) [Compound 133b, (2S)—N-{1-cyano-2-[6-(3-methyl-2-oxo-1,3-benzoxazol-5-yl)naphthalen-2-yl]ethyl}-1,4-oxazepane-2-carboxamide] are ≥ 15 nM and ≥ 1.5 nM.
For the compound `Cn1c(=O)oc2ccc(-c3cc4ccc(C[C@@H](C#N)NC(=O)[C@@H]5CNCCCO5)c(F)c4s3)cc21` [Compound 134a], the IC50 was ≥ 15 nM on DPP1 [1] and ≥ 1.5 nM against DPP1 [2].
On the same counts, the results for `CCN1C(=O)Cc2ccc(-c3cc4sc(C[C@@H](C#N)NC(=O)[C@@H]5CNCCCCO5)cc4s3)cc21` [Compound 138b, (2S)—N-[(1S)-1-cyano-2-[5-(1-ethyl-2-oxo-3H-indol-6-yl)thieno[3,2-b]thiophen-2-yl]ethyl]-1,4-oxazocane-2-carboxamide] are ≥ 15 nM and ≥ 1.5 nM.
On the same counts, the results for `CCN1C(=O)Cc2ccc(-c3cc4sc(C[C@H](C#N)NC(=O)[C@@H]5CNCCCCO5)cc4s3)cc21` [Compound 138c, (2S)—N-[(1R)-1-cyano-2-[5-(1-ethyl-2-oxo-3H-indol-6-yl)thieno[3,2-b]thiophen-2-yl]ethyl]-1,4-oxazocane-2-carboxamide] are ≥ 15 nM and ≥ 1.5 nM.
On the same counts, the results for `Cn1c(=O)oc2ccc(-c3cc4sc(C[C@@H](C#N)NC(=O)[C@@H]5CNCCCCO5)cc4s3)cc21` [Compound 139b, (2S)—N-[(1S)-1-cyano-2-[5-(3-methyl-2-oxo-1,3-benzoxazol-5-yl)thieno[3,2-b]thiophen-2-yl]ethyl]-1,4-oxazocane-2-carboxamide] are ≥ 15 nM and ≥ 1.5 nM.
As for `Cn1c(=O)oc2ccc(-c3cc4sc(C[C@H](C#N)NC(=O)[C@@H]5CNCCCCO5)cc4s3)cc21` [Compound 139c, (2S)—N-[(1R)-1-cyano-2-[5-(3-methyl-2-oxo-1,3-benzoxazol-5-yl)thieno[3,2-b]thiophen-2-yl]ethyl]-1,4-oxazocane-2-carboxamide], the results for the IC50 on DPP1 [1] and against DPP1 [2] were ≥ 15 nM and ≥ 1.5 nM, respectively.
On the same counts, the results for `CO[C@@H]1CCNC[C@@H](C(=O)N[C@H](C#N)Cc2cc3sc(-c4ccc5oc(=O)n(C)c5c4)cc3s2)OC1` [Compound 142b] are 5 to 15 nM and ≥ 1.5 nM.
